Source: publication PMC9519446, “Discovery of an Orally Active Benzoxaborole Prodrug Effective in the Treatment of Chagas Disease in Non-human Primates” (Nature microbiology, 2022)
Where “and” joins values, the source holds several entries; their conditions need not be identical. Identical values can stand only once.

Test: NHP health screening: serum chemistry
Type: in vivo, rhesus macaques (Macaca mulatta)
[1] = Mid-dosing bleed, treated animals, individual values
[2] = Post-dosing bleed, treated animals, individual values
[3] = Post-dosing bleed, Mean of treated F animals
[4] = Post-dosing bleed, individual treated animals
[5] = drug-treatment phase, returned to pre-study values by the final blood draw

Protocol: Under light-anesthesia/sedation, peripheral blood samples were collected from each animal prior to treatment and at 7 time points following. Blood analysis (CBC and serum chemistry assays) and physical exams to evaluate the health of the study animals were performed on each animal prior to the beginning of the study and also at three time points during the treatment protocol (see Supplementary data).

Cc1c(C(=O)N[C@H](C(=O)OCC2CCOCC2)C(C)C)ccc2c1B(O)OC2 [AN15368]
Glob [1]: 3.3 G/Dl and 3.1 G/Dl and 2.8 G/Dl and 3.4 G/Dl and 2.9 G/Dl and 4.1 G/Dl and 3.8 G/Dl and 2.7 G/Dl and 2.5 G/Dl and 3 G/Dl and 3.5 G/Dl and 3.2 G/Dl
Gluc [1]: 69 Mg/Dl and 72 Mg/Dl and 58 Mg/Dl and 65 Mg/Dl and 66 Mg/Dl and 56 Mg/Dl and 73 Mg/Dl and 55 Mg/Dl and 63 Mg/Dl and 70 Mg/Dl and 48 Mg/Dl and 54 Mg/Dl and 79 Mg/Dl and 68 Mg/Dl and 53 Mg/Dl
K [1]: 3.9 Meq/L and 3.6 Meq/L and 3.3 Meq/L and 3.4 Meq/L and 3.5 Meq/L and 4.3 Meq/L and 3.8 Meq/L and 3.7 Meq/L
Ldh [1]: 473 Iu/L and 139 Iu/L and 164 Iu/L and 148 Iu/L and 134 Iu/L and 214 Iu/L and 259 Iu/L and 376 Iu/L and 250 Iu/L and 266 Iu/L and 183 Iu/L and 238 Iu/L and 449 Iu/L and 154 Iu/L and 213 Iu/L and 475 Iu/L and 156 Iu/L and 198 Iu/L and 375 Iu/L
Na [1]: 148 Meq/L and 150 Meq/L and 147 Meq/L and 144 Meq/L and 149 Meq/L and 146 Meq/L and 152 Meq/L
Osmo [1]: 284 Mosm/Kg and 289 Mosm/Kg and 281 Mosm/Kg and 283 Mosm/Kg and 288 Mosm/Kg and 276 Mosm/Kg and 286 Mosm/Kg and 280 Mosm/Kg and 287 Mosm/Kg and 293 Mosm/Kg and 285 Mosm/Kg and 282 Mosm/Kg
Phos [1]: 3.3 Mg/Dl and 3.8 Mg/Dl and 2 Mg/Dl and 2.4 Mg/Dl and 1 Mg/Dl and 2.2 Mg/Dl and 3.9 Mg/Dl and 2.5 Mg/Dl and 3.6 Mg/Dl and 3.1 Mg/Dl and 1.8 Mg/Dl and 4.8 Mg/Dl and 3.2 Mg/Dl
Tbil [1]: 0.18 Mg/Dl and 0.17 Mg/Dl and 0.14 Mg/Dl and 0.2 Mg/Dl and 0.16 Mg/Dl and 0.19 Mg/Dl and 0.15 Mg/Dl and 0.13 Mg/Dl
Tco2 [1]: 26 Meq/L and 28 Meq/L and 27 Meq/L and 25 Meq/L and 30 Meq/L and 24 Meq/L
Tibc [1]: 376 µg/dL and 358 µg/dL and 410 µg/dL and 408 µg/dL and 348 µg/dL and 343 µg/dL and 359 µg/dL and 373 µg/dL and 383 µg/dL and 429 µg/dL and 377 µg/dL and 326 µg/dL and 340 µg/dL and 412 µg/dL and 337 µg/dL and 324 µg/dL and 325 µg/dL
Tp [1]: 7.2 G/Dl and 6.7 G/Dl and 7.3 G/Dl and 7.5 G/Dl and 6.4 G/Dl and 7 G/Dl and 6.9 G/Dl and 6.5 G/Dl and 6.8 G/Dl and 6.6 G/Dl
Trig [1]: 99 Mg/Dl and 148 Mg/Dl and 81 Mg/Dl and 85 Mg/Dl and 108 Mg/Dl and 72 Mg/Dl and 32 Mg/Dl and 141 Mg/Dl and 65 Mg/Dl and 82 Mg/Dl and 79 Mg/Dl and 102 Mg/Dl and 29 Mg/Dl and 76 Mg/Dl and 70 Mg/Dl and 62 Mg/Dl and 66 Mg/Dl and 95 Mg/Dl
Agap [2]: 16 Meq/L and 14 Meq/L
Alb [2]: 3.9 G/Dl and 3.7 G/Dl
Alp [2]: 111 Iu/L and 100 Iu/L and 77 Iu/L
Alt [2]: 52 Iu/L and 63 Iu/L and 59 Iu/L
Ast [2]: 26 Iu/L and 34 Iu/L and 32 Iu/L
Bun [2]: 17 Mg/Dl and 14 Mg/Dl
Ca [2]: 9.5 Mg/Dl and 8.9 Mg/Dl
Chol [2]: 187 mg/dL and 193 mg/dL and 141 mg/dL
Ck [2]: 260 Iu/L and 337 Iu/L and 328 Iu/L
Cl [2]: 107 Meq/L and 111 Meq/L
Crea [2]: 0.58 Mg/Dl and 0.78 Mg/Dl and 0.68 Mg/Dl
Fe [2]: 135 µg/dL and 99 µg/dL and 93 µg/dL
Ggt [2]: 41 Iu/L and 54 Iu/L and 38 Iu/L
Glob [2]: 3.3 G/Dl and 3.1 G/Dl and 2.9 G/Dl
Gluc [2]: 63 Mg/Dl and 84 Mg/Dl and 51 Mg/Dl
K [2]: 3.5 Meq/L and 3.4 Meq/L
Ldh [2]: 217 Iu/L and 509 Iu/L and 322 Iu/L
Na [2]: 147 Meq/L and 146 Meq/L and 148 Meq/L
Osmo [2]: 283 Mosm/Kg and 281 Mosm/Kg and 284 Mosm/Kg
Phos [2]: 4.6 Mg/Dl and 3.2 Mg/Dl and 2.1 Mg/Dl
Tbil [2]: 0.19 Mg/Dl and 0.14 Mg/Dl and 0.12 Mg/Dl
Tco2 [2]: 28 Meq/L and 26 Meq/L
Tibc [2]: 357 µg/dL and 333 µg/dL and 388 µg/dL
Tp [2]: 7.2 G/Dl and 6.8 G/Dl and 6.6 G/Dl
Trig [2]: 64 Mg/Dl and 152 Mg/Dl and 111 Mg/Dl
Agap [3]: 15.0556 Meq/L
Alb [3]: 3.833 G/Dl
Alp [3]: 103.5 Iu/L
Alt [3]: 52.5556 Iu/L
Ast [3]: 30.8889 Iu/L
Bun [3]: 14.9444 Mg/Dl
Ca [3]: 9.256 Mg/Dl
Chol [3]: 143.944 mg/dL
Ck [3]: 504.722 Iu/L
Cl [3]: 109.722 Meq/L
Crea [3]: 0.695 Mg/Dl
Fe [3]: 115.333 µg/dL
Ggt [3]: 47 Iu/L
Glob [3]: 3.178 G/Dl
Gluc [3]: 64.6667 Mg/Dl
K [3]: 3.617 Meq/L
Ldh [3]: 322.722 Iu/L
Na [3]: 147.667 Meq/L
Osmo [3]: 283.5 Mosm/Kg
Phos [3]: 3.244 Mg/Dl
Tbil [3]: 0.1383 Mg/Dl
Tco2 [3]: 26.6111 Meq/L
Tibc [3]: 363.444 µg/dL
Tp [3]: 7.006 G/Dl
Trig [3]: 77.7222 Mg/Dl
Agap [4]: 14 Meq/L and 13 Meq/L and 17 Meq/L and 15 Meq/L and 19 Meq/L
Alb [4]: 3.7 G/Dl and 3.8 G/Dl and 3.6 G/Dl and 3.3 G/Dl and 3.5 G/Dl and 4.1 G/Dl and 4.2 G/Dl and 4 G/Dl and 3.4 G/Dl and 3.9 G/Dl
Alp [4]: 195 Iu/L and 100 Iu/L and 87 Iu/L and 122 Iu/L and 132 Iu/L and 143 Iu/L and 66 Iu/L and 83 Iu/L and 80 Iu/L and 105 Iu/L and 138 Iu/L and 102 Iu/L and 69 Iu/L and 79 Iu/L
Alt [4]: 97 Iu/L and 39 Iu/L and 41 Iu/L and 87 Iu/L and 35 Iu/L and 91 Iu/L and 28 Iu/L and 31 Iu/L and 48 Iu/L and 71 Iu/L and 43 Iu/L and 46 Iu/L and 64 Iu/L
Ast [4]: 40 Iu/L and 30 Iu/L and 31 Iu/L and 28 Iu/L and 27 Iu/L and 20 Iu/L and 42 Iu/L and 18 Iu/L and 26 Iu/L and 32 Iu/L and 45 Iu/L and 35 Iu/L
Bun [4]: 12 Mg/Dl and 16 Mg/Dl and 17 Mg/Dl and 10 Mg/Dl and 18 Mg/Dl and 15 Mg/Dl and 13 Mg/Dl and 20 Mg/Dl and 11 Mg/Dl and 14 Mg/Dl
Ca [4]: 9.1 Mg/Dl and 8.8 Mg/Dl and 9 Mg/Dl and 9.3 Mg/Dl and 9.8 Mg/Dl and 9.2 Mg/Dl and 9.6 Mg/Dl and 9.4 Mg/Dl and 9.5 Mg/Dl and 8.7 Mg/Dl
Chol [4]: 121 mg/dL and 130 mg/dL and 133 mg/dL and 163 mg/dL and 147 mg/dL and 123 mg/dL and 150 mg/dL and 157 mg/dL and 141 mg/dL and 125 mg/dL and 129 mg/dL and 155 mg/dL and 160 mg/dL and 115 mg/dL and 127 mg/dL
Ck [4]: 628 Iu/L and 657 Iu/L and 306 Iu/L and 255 Iu/L and 667 Iu/L and 292 Iu/L and 656 Iu/L and 625 Iu/L and 240 Iu/L and 479 Iu/L and 309 Iu/L and 783 Iu/L and 341 Iu/L and 1583 Iu/L and 339 Iu/L and 291 Iu/L
Cl [4]: 109 Meq/L and 111 Meq/L and 108 Meq/L and 113 Meq/L and 110 Meq/L and 107 Meq/L
Crea [4]: 0.68 Mg/Dl and 0.84 Mg/Dl and 0.9 Mg/Dl and 0.6 Mg/Dl and 0.64 Mg/Dl and 0.7 Mg/Dl and 0.75 Mg/Dl and 0.83 Mg/Dl and 0.62 Mg/Dl and 0.65 Mg/Dl and 0.78 Mg/Dl and 0.66 Mg/Dl and 0.53 Mg/Dl
Fe [4]: 123 µg/dL and 100 µg/dL and 104 µg/dL and 102 µg/dL and 72 µg/dL and 129 µg/dL and 105 µg/dL and 154 µg/dL and 174 µg/dL and 67 µg/dL and 109 µg/dL and 144 µg/dL and 159 µg/dL and 136 µg/dL
Ggt [4]: 47 Iu/L and 54 Iu/L and 63 Iu/L and 53 Iu/L and 51 Iu/L and 30 Iu/L and 52 Iu/L and 29 Iu/L and 39 Iu/L and 31 Iu/L and 89 Iu/L and 35 Iu/L and 42 Iu/L
Glob [4]: 3.3 G/Dl and 2.9 G/Dl and 4 G/Dl and 3.5 G/Dl and 3 G/Dl and 3.2 G/Dl and 2.7 G/Dl and 2.8 G/Dl and 3.4 G/Dl
Gluc [4]: 67 Mg/Dl and 57 Mg/Dl and 69 Mg/Dl and 65 Mg/Dl and 74 Mg/Dl and 62 Mg/Dl and 70 Mg/Dl and 48 Mg/Dl and 50 Mg/Dl and 58 Mg/Dl and 66 Mg/Dl and 75 Mg/Dl and 86 Mg/Dl and 44 Mg/Dl and 51 Mg/Dl
K [4]: 3.6 Meq/L and 3.5 Meq/L and 3.7 Meq/L and 4.4 Meq/L and 3.4 Meq/L and 3.8 Meq/L
Ldh [4]: 356 Iu/L and 197 Iu/L and 294 Iu/L and 209 Iu/L and 260 Iu/L and 107 Iu/L and 225 Iu/L and 392 Iu/L and 204 Iu/L and 300 Iu/L and 485 Iu/L and 796 Iu/L and 178 Iu/L and 365 Iu/L and 393 Iu/L and 524 Iu/L
Na [4]: 147 Meq/L and 150 Meq/L and 148 Meq/L and 151 Meq/L and 146 Meq/L and 149 Meq/L and 145 Meq/L
Osmo [4]: 281 Mosm/Kg and 288 Mosm/Kg and 283 Mosm/Kg and 282 Mosm/Kg and 284 Mosm/Kg and 291 Mosm/Kg and 280 Mosm/Kg and 286 Mosm/Kg and 279 Mosm/Kg and 287 Mosm/Kg
Phos [4]: 2.4 Mg/Dl and 1.8 Mg/Dl and 1.9 Mg/Dl and 2.7 Mg/Dl and 3.6 Mg/Dl and 3.8 Mg/Dl and 4.7 Mg/Dl and 2.9 Mg/Dl and 3.7 Mg/Dl and 5.2 Mg/Dl and 2.1 Mg/Dl and 4.6 Mg/Dl and 4.3 Mg/Dl and 4 Mg/Dl
Tbil [4]: 0.15 Mg/Dl and 0.13 Mg/Dl and 0.1 Mg/Dl and 0.14 Mg/Dl and 0.17 Mg/Dl and 0.12 Mg/Dl and 0.11 Mg/Dl and 0.16 Mg/Dl
Tco2 [4]: 28 Meq/L and 30 Meq/L and 26 Meq/L and 25 Meq/L and 24 Meq/L and 29 Meq/L and 23 Meq/L
Tibc [4]: 379 µg/dL and 363 µg/dL and 332 µg/dL and 367 µg/dL and 386 µg/dL and 356 µg/dL and 359 µg/dL and 419 µg/dL and 437 µg/dL and 354 µg/dL and 325 µg/dL and 353 µg/dL and 316 µg/dL and 309 µg/dL
Tp [4]: 7 G/Dl and 6.7 G/Dl and 7.6 G/Dl and 6.8 G/Dl and 7.5 G/Dl and 7.1 G/Dl and 6.9 G/Dl and 7.2 G/Dl
Trig [4]: 78 Mg/Dl and 58 Mg/Dl and 56 Mg/Dl and 74 Mg/Dl and 63 Mg/Dl and 59 Mg/Dl and 42 Mg/Dl and 61 Mg/Dl and 158 Mg/Dl and 51 Mg/Dl and 44 Mg/Dl and 113 Mg/Dl and 93 Mg/Dl and 100 Mg/Dl
alanine aminotransferase (ALT), mean value [5]: mildly elevated
alkaline phosphatase (ALP), mean value [5]: mildly elevated
